In the supplement of paper PMC10307832:

What was measured:
Experiment in all cases: relative viability (nuclei count vs DMSO), 5 days (fraction); higher = more cells survive
[1] = compound: COC1=CC=C(C=C1)CN2C=CC3=C2C=C(C=C3)C(=O)NO + C[C@@H](Oc1cc(-c2cnn(C3CCNCC3)c2)cnc1N)c1c(Cl)ccc(F)c1Cl [Crizotinib] (partner 1 µM)
How it was run: (§1)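 Each reported value is a median over duplicate plates. It expresses relative viability: treated-well nuclei count divided by vehicle-well nuclei count. Lung cancer cell lines in 1536-well plates were dosed by pin tool a day after seeding, alone with one drug or with a fixed anchor-drug dose plus five library-drug doses (not always all listed) in √10 steps, and nuclei were counted after 5 days.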

Veliparib + Palbociclib = compound: C[C@]1(c2nc3c(C(N)=O)cccc3[nH]2)CCCN1 [Veliparib] + CC(=O)c1c(C)c2cnc(Nc3ccc(N4CCNCC4)cn3)nc2n(C2CCCC2)c1=O [Palbociclib] (partner 0.5 µM)
How it was run: as §1

Veliparib + Vorinostat = compound: C[C@]1(c2nc3c(C(N)=O)cccc3[nH]2)CCCN1 [Veliparib] + O=C(CCCCCCC(=O)Nc1ccccc1)NO [Vorinostat] (partner 1 µM)
How it was run: as §1

Veliparib + Trametinib = compound: C[C@]1(c2nc3c(C(N)=O)cccc3[nH]2)CCCN1 [Veliparib] + CC(=O)Nc1cccc(-n2c(=O)n(C3CC3)c(=O)c3c(Nc4ccc(I)cc4F)n(C)c(=O)c(C)c32)c1 [Trametinib] (partner 0.02 µM)
How it was run: as §1

Which results are given for SW 1573?
relative viability ([1]; first compound 0.253 µM): 0.908; relative viability ([1]; first compound 0.8 µM): 0.803; relative viability ([1]; first compound 2.53 µM): 0.755; relative viability ([1]; first compound 8 µM): 0.587; relative viability (Veliparib + Palbociclib; first compound 0.06325 µM): 0.337; relative viability (Veliparib + Palbociclib; first compound 0.2 µM): 0.431; relative viability (Veliparib + Palbociclib; first compound 0.6325 µM): 0.382; relative viability (Veliparib + Palbociclib; first compound 2 µM): 0.445; relative viability (Veliparib + Vorinostat; first compound 0.06325 µM): 0.596; relative viability (Veliparib + Vorinostat; first compound 0.2 µM): 0.67; relative viability (Veliparib + Vorinostat; first compound 0.6325 µM): 0.495; relative viability (Veliparib + Vorinostat; first compound 2 µM): 0.869; relative viability (Veliparib + Trametinib; first compound 0.06325 µM): 0.474; relative viability (Veliparib + Trametinib; first compound 0.2 µM): 0.52; relative viability (Veliparib + Trametinib; first compound 0.6325 µM): 0.513; relative viability (Veliparib + Trametinib; first compound 2 µM): 0.548
